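Results reflect a 48-hour exposure of cells in 96-well plates to compound at five concentrations. GI50 is the concentration that inhibits growth by half. TGI: concentration producing complete growth inhibition.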 Bounds are passed on as bounds.

This note sets out measurements from PubChem BioAssay (NCI).

For the first assay, the system named is SR leukemia. As to the kind of experiment: NCI tumour cell line growth inhibition, 48 h.
Turning to `CN1CN(c2ccccc2)C2(CCN(CCCC3(c4cccs4)OCCO3)CC2)C1=O`, the TGI is greater than 100 µM.

`Cc1nc2ccc([N+](=O)[O-])cc2c(=O)n1C(=S)Nc1cccc(Cl)c1` showed a TGI greater than 100 µM.

Compound `COc1cccc(-c2nc(-c3cnccn3)n(Cc3ccccc3)n2)c1` registered a TGI greater than 100 µM.

On to `CC(=O)Nc1ccc(Cl)c(Cl)c1`, for which the TGI was greater than 100 µM.

The compound `O=C(/C=C/c1cccs1)c1ccc(Cl)cc1` gave a TGI of 71.1 µM.

`N#Cc1c(OCCF)c2ccccc2n2c1nc1ccccc12` had a TGI greater than 100 µM.

As to `CCOC(=O)C1CC(O)C(=O)N1C` (stereo unspecified), the TGI is greater than 100 µM.

The compound `COc1cccc(C2c3cc4c(cc3OC(N3CCCC3)C2C)OCO4)c1OC` (stereo unspecified) gave a TGI of 15.2 µM.

With `c1ccc(N=c2snc(-c3ccccc3)s2)cc1`, the TGI is greater than 100 µM.

As to `CC(=O)CC(=O)c1cc2c(=O)oc(C)cc2oc1=O`, the TGI is greater than 37.5 µM.

The test system of another assay is SF-295 CNS. As to the kind of experiment: NCI tumour cell line growth inhibition, 48 h.
The compound `C=CCCCC12CCCc3cccc(c31)NC2=O` (stereo unspecified) registered a TGI greater than 100 µM.

`C[C@@H]1C[C@H](O)[C@]2(O)O[C@@H]3C[C@@]4(C=O)[C@@H](CC=C5[C@@H]4CC[C@]4(C)[C@@H](C6=CC(=O)OC6)CC[C@]54O)C[C@H]3O[C@@H]2O1` came in with a TGI of 0.627 µM.

`Cc1nc2cc(C(F)(F)F)ccc2[nH]c1=O` returned a TGI greater than 100 µM.

In the case of `N#CSCc1cccc(Nc2cc(=O)[nH]c(=O)[nH]2)c1`, the TGI is greater than 100 µM.

`O=C1C(Cl)N(c2ccccc2)C1c1c[nH]c2ccccc12` (stereo unspecified) yielded a TGI greater than 100 µM.

Take `CC(C)/C(Cl)=N\OC(=O)NNc1ccccc1`: the TGI was greater than 100 µM.

Turning to `Cc1nc2nnc(C)n2c2c1C(=O)Nc1ccccc1N2`, the TGI is greater than 100 µM.

In the case of `O=C(OCc1ccccc1)OOC(=O)OCc1ccccc1`, the TGI is greater than 100 µM.

In turn, `CN(C)c1ccc(/C(Br)=C2\OC(=O)c3ccccc32)cc1` showed a TGI greater than 100 µM.

In turn, `O=C1OC[C@@H]2Cc3c([nH]c4ccccc34)[C@@H](c3ccc(O)cc3)N12` returned a TGI greater than 83.4 µM.

In turn, `Nc1ncnc2c1ncn2C(=O)NC12CC3CC(CC(C3)C1)C2` returned a TGI greater than 100 µM.

As to `CC1=C2c3ccccc3N(C(=O)/C=C/C(=O)O)[C@H]2[C@H]2C(=O)OC(=O)[C@H]2C1`, the TGI is greater than 10 µM.

In the case of `CC(C)(CO)N1C(=O)c2ccccc2C1(O)c1ccc(Cl)cc1` (stereo unspecified), the TGI was greater than 100 µM.

`Cc1cc2cccc(Cl)c2nc1C(=O)c1ccccc1` yielded a TGI of 51.9 µM.

Compound `CN1CN(c2ccccc2)C2(CCN(CCCC3(c4cccs4)OCCO3)CC2)C1=O` gave a TGI greater than 100 µM.

Consider `COc1cc([C@@H]2c3cc4c(cc3C[C@H]3COC(=O)[C@@H]32)OCO4)cc(OC)c1OC`, for which the GI50 was 0.00296 µM and the TGI amounted to 0.00833 µM.

Compound `Cc1nc2ccc([N+](=O)[O-])cc2c(=O)n1C(=S)Nc1cccc(Cl)c1` gave a TGI of 53.6 µM.

With `COc1cccc(-c2nc(-c3cnccn3)n(Cc3ccccc3)n2)c1`, the TGI is greater than 100 µM.

In the case of `CC(=O)Nc1ccc(Cl)c(Cl)c1`, the TGI is greater than 100 µM.

`O=C(/C=C/c1cccs1)c1ccc(Cl)cc1` displayed a TGI greater than 100 µM.

For `N#Cc1c(OCCF)c2ccccc2n2c1nc1ccccc12`, the TGI was greater than 100 µM.

`CC(=O)/C(=C/n1c(=S)sc2ccccc21)C(=O)Nc1ccccc1C` yielded a TGI greater than 100 µM.

As to `Cc1ccc(C(=O)Nc2ccc(CP(=O)(O)O)cc2)cc1NC(=O)c1cccc(NC(=O)Nc2cccc(C(=O)Nc3cc(C(=O)Nc4ccc(CP(=O)(O)O)cc4)ccc3C)c2)c1`, the TGI is greater than 100 µM.

On to `O=C(CCc1ccc(O)cc1)c1c(O)cc(O)cc1OC1OC(CO)C(O)C(O)C1O` (stereo unspecified), for which the TGI was greater than 100 µM.

The compound `CC(C)=CC1C(C(=O)O)C1(C)C` (stereo unspecified) came in with a TGI greater than 750 µM.

For `CCOC(=O)C1CC(O)C(=O)N1C` (stereo unspecified), the TGI was greater than 100 µM.

`COc1cccc(C2c3cc4c(cc3OC(N3CCCC3)C2C)OCO4)c1OC` (stereo unspecified) showed a TGI of 12.4 µM.

`CC(=O)CC(=O)c1cc2c(=O)oc(C)cc2oc1=O`: the TGI is greater than 37.5 µM.

In turn, `OCc1ccccc1C1CSCSC1` returned a TGI greater than 100 µM.

Another assay has as its system K-562 leukemia. As to the kind of experiment: NCI tumour cell line growth inhibition, 48 h.
Turning to `C=CCCCC12CCCc3cccc(c31)NC2=O` (stereo unspecified), the TGI was found to be 78.3 µM.

In turn, `C[C@@H]1C[C@H](O)[C@]2(O)O[C@@H]3C[C@@]4(C=O)[C@@H](CC=C5[C@@H]4CC[C@]4(C)[C@@H](C6=CC(=O)OC6)CC[C@]54O)C[C@H]3O[C@@H]2O1` yielded a TGI greater than 100 µM.

On to `Cc1nc2cc(C(F)(F)F)ccc2[nH]c1=O`, for which the TGI is greater than 100 µM.

As for `N#CSCc1cccc(Nc2cc(=O)[nH]c(=O)[nH]2)c1`, the TGI was greater than 100 µM.

For `O=C1C(Cl)N(c2ccccc2)C1c1c[nH]c2ccccc12` (stereo unspecified), the TGI is greater than 100 µM.

In turn, `Cc1nc2nnc(C)n2c2c1C(=O)Nc1ccccc1N2` came in with a TGI greater than 100 µM.

`O=C(OCc1ccccc1)OOC(=O)OCc1ccccc1` returned a TGI greater than 100 µM.

In the case of `CN(C)c1ccc(/C(Br)=C2\OC(=O)c3ccccc32)cc1`, the TGI was greater than 100 µM.

The compound `O=C1OC[C@@H]2Cc3c([nH]c4ccccc34)[C@@H](c3ccc(O)cc3)N12` returned a TGI greater than 75.2 µM.

`Nc1ncnc2c1ncn2C(=O)NC12CC3CC(CC(C3)C1)C2` had a TGI greater than 100 µM.

As for `CC(C)(CO)N1C(=O)c2ccccc2C1(O)c1ccc(Cl)cc1` (stereo unspecified), the TGI was greater than 100 µM.

Regarding `Cc1cc2cccc(Cl)c2nc1C(=O)c1ccccc1`, the TGI is greater than 100 µM.

On to `CN1CN(c2ccccc2)C2(CCN(CCCC3(c4cccs4)OCCO3)CC2)C1=O`, for which the TGI is greater than 100 µM.

As to `COc1cc([C@@H]2c3cc4c(cc3C[C@H]3COC(=O)[C@@H]32)OCO4)cc(OC)c1OC`, the GI50 is 0.00404 µM and the TGI was 21.9 µM.

Turning to `Cc1nc2ccc([N+](=O)[O-])cc2c(=O)n1C(=S)Nc1cccc(Cl)c1`, the TGI is 98.5 µM.

The compound `COc1cccc(-c2nc(-c3cnccn3)n(Cc3ccccc3)n2)c1` displayed a TGI greater than 100 µM.

As for `CC(=O)Nc1ccc(Cl)c(Cl)c1`, the TGI is greater than 100 µM.

Turning to `N#Cc1c(OCCF)c2ccccc2n2c1nc1ccccc12`, the TGI was greater than 100 µM.

For `Cc1ccc(C(=O)Nc2ccc(CP(=O)(O)O)cc2)cc1NC(=O)c1cccc(NC(=O)Nc2cccc(C(=O)Nc3cc(C(=O)Nc4ccc(CP(=O)(O)O)cc4)ccc3C)c2)c1`, the TGI is greater than 100 µM.

The compound `O=C(CCc1ccc(O)cc1)c1c(O)cc(O)cc1OC1OC(CO)C(O)C(O)C1O` (stereo unspecified) showed a TGI greater than 100 µM.

`CC(C)=CC1C(C(=O)O)C1(C)C` (stereo unspecified) yielded a TGI greater than 750 µM.

Take `COc1cccc(C2c3cc4c(cc3OC(N3CCCC3)C2C)OCO4)c1OC` (stereo unspecified): the TGI came to 30.5 µM.

For the compound `c1ccc(N=c2snc(-c3ccccc3)s2)cc1`, the TGI is greater than 100 µM.

Regarding `CC(=O)CC(=O)c1cc2c(=O)oc(C)cc2oc1=O`, the TGI is greater than 37.5 µM.

As to `OCc1ccccc1C1CSCSC1`, the TGI was greater than 100 µM.
